How the values were obtained:
Assay type in all cases: in vivo
[1] = tested on: barnyardgrass (Echinochloa crus-galli); test: Test A preemergence soil spray, visual injury rating 0-100; conditions: 10 days
Method in brief: (§1)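 Seeds sown in loam-sand blend got a preemergence directed soil spray, or emerged plants (2-10 cm, one- to two-leaf) got a postemergence spray, of compound in non-phytotoxic solvent with surfactant. After 10 days in greenhouse, injury rated visually versus untreated controls on a 0 (no effect) to 100 (complete control) scale.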

kochia (Bassia scoparia) [2] = test: as above; conditions: 10 days
Method in brief: as §1

corn (Zea mays) [3] = test: as above; conditions: 10 days
Method in brief: as §1

[4] = tested on: oat, wild (wild oat, Avena fatua); test: as above; conditions: 10 days
Method in brief: as §1

[5] = tested on: ragweed (common ragweed, Ambrosia artemisiifolia); test: as above; conditions: 10 days
Method in brief: as §1

[6] = tested on: ryegrass, Italian (italian ryegrass, Lolium multiflorum); test: as above; conditions: 10 days
Method in brief: as §1

[7] = tested on: palmer (palmer amaranth, palmer pigweed, Amaranthus palmeri); test: as above; conditions: 10 days
Method in brief: as §1

[8] = tested on: wheat (Triticum aestivum); test: as above; conditions: 10 days
Method in brief: as §1

soybean (Glycine max) [9] = test: as above; conditions: 10 days
Method in brief: as §1

[10] = tested on: blackgrass (Alopecurus myosuroides); test: as above; conditions: 10 days
Method in brief: as §1

[11] = tested on: green foxtail (Setaria viridis); test: as above; conditions: 10 days
Method in brief: as §1

[12] = tested on: barnyardgrass (Echinochloa crusgalli); test: Test B flooded paddy test, visual plant response rating 0-100; conditions: 250 g ai/ha, Flood, applied to paddy water, evaluated after 13 days
Method in brief: (§2)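 Visual scores versus untreated controls were recorded 13 days after treatment of greenhouse-held plants. At the 2-leaf stage, pots were flooded 3 cm above the soil surface and compounds added straight to the water.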

[13] = tested on: ducksalad (Heteranthera limosa); test: as above; conditions: 250 g ai/ha, Flood, applied to paddy water, evaluated after 13 days
Method in brief: as §2

rice (Oryza sativa) = test: as above; conditions: 250 g ai/ha, Flood, applied to paddy water, evaluated after 13 days
Method in brief: as §2

[14] = tested on: sedge, umbrella (small-flower umbrella sedge, Cyperus difformis); test: as above; conditions: 250 g ai/ha, Flood, applied to paddy water, evaluated after 13 days
Method in brief: as §2

[15] = tested on: barnyardgrass (Echinochloa crus-galli); test: Test A postemergence application, visual injury rating 0-100
Method in brief: as §1

kochia (Bassia scoparia) [16] = test: as above
Method in brief: as §1

corn (Zea mays) [17] = test: as above
Method in brief: as §1

[18] = tested on: oat, wild (wild oat, Avena fatua); test: as above
Method in brief: as §1

[19] = tested on: ragweed (common ragweed, Ambrosia artemisiifolia); test: as above
Method in brief: as §1

[20] = tested on: ryegrass, Italian (italian ryegrass, Lolium multiflorum); test: as above
Method in brief: as §1

[21] = tested on: palmer (palmer amaranth, palmer pigweed, Amaranthus palmeri); test: as above
Method in brief: as §1

[22] = tested on: wheat (Triticum aestivum); test: as above
Method in brief: as §1

[23] = tested on: horseweed (Erigeron canadensis); test: as above
Method in brief: as §1

soybean (Glycine max) [24] = test: as above
Method in brief: as §1

[25] = tested on: blackgrass (Alopecurus myosuroides); test: as above
Method in brief: as §1

[26] = tested on: green foxtail (Setaria viridis); test: as above
Method in brief: as §1

[27] = tested on: galium (catchweed bedstraw, Galium aparine); test: as above; conditions: 62 g ai/ha, postemergence, 10 days, 0 = no effect, 100 = complete control
Method in brief: as §1

[28] = 62 g ai/ha, 0 = no effect, 100 = complete control
[29] = 62 g ai/ha, postemergence, 10 days, 0 = no effect, 100 = complete control
[30] = Postemergence, 16 g ai/ha, greenhouse 10 days, 0 no effect, 100 complete control

CC1(C(=O)NC2CC=C(C(=O)O)C2)CN(c2cc(F)cc(Cl)c2)C(=O)O1 (stereo not drawn) [Compound 160]
Barnyardgrass plant response rating ([1]; 16 g ai/ha, 0 to 100 scale): 0 | Barnyardgrass plant response rating (0-100) [1, 28]: 0 | Kochia plant response rating (kochia (Bassia scoparia) [2]; 16 g ai/ha, 0 to 100 scale): 0 | Kochia plant response rating (0-100) (kochia (Bassia scoparia) [2]; [28]): 0 | Corn plant response rating (corn (Zea mays) [3]; 16 g ai/ha, 0 to 100 scale): 0 | Corn plant response rating (0-100) (corn (Zea mays) [3]; [28]): 0 | Oat, Wild plant response rating ([4]; 16 g ai/ha, 0 to 100 scale): 0 | Oat, Wild plant response rating (0-100) [4, 28]: 0 | Ragweed plant response rating ([5]; 16 g ai/ha, 0 to 100 scale): 0 | Ragweed plant response rating (0-100) [5, 28]: 0 | Ryegrass, Italian plant response rating ([6]; 16 g ai/ha, 0 to 100 scale): 0 | Ryegrass, Italian plant response rating (0-100) [6, 28]: 0 | Pigweed, Palmer plant response rating ([7]; 16 g ai/ha, 0 to 100 scale): 0 | Pigweed, Palmer plant response rating (0-100) [7, 28]: 0 | Wheat plant response rating ([8]; 16 g ai/ha, 0 to 100 scale): 0 | Wheat plant response rating (0-100) [8, 28]: 0 | Soybean plant response rating (soybean (Glycine max) [9]; 16 g ai/ha, 0 to 100 scale): 0 | Soybean plant response rating (0-100) (soybean (Glycine max) [9]; [28]): 0 | Blackgrass plant response rating ([10]; 16 g ai/ha, 0 to 100 scale): 0 | Blackgrass plant response rating (0-100) [10, 28]: 0 | Foxtail, Green plant response rating ([11]; 16 g ai/ha, 0 to 100 scale): 0 | Foxtail, Green plant response rating (0-100) [11, 28]: 0 | Plant response rating, Barnyardgrass (0 to 100 scale, 0 is no effect and 100 is complete control) [12]: 0 | Plant response rating, Ducksalad (0 to 100 scale, 0 is no effect and 100 is complete control) [13]: 55 | Plant response rating, Rice (0 to 100 scale, 0 is no effect and 100 is complete control) (rice (Oryza sativa)): 0 | Plant response rating, Sedge, Umbrella (0 to 100 scale, 0 is no effect and 100 is complete control) [14]: 25 | Barnyardgrass plant response rating (0-100) [15, 29]: 0 | Barnyardgrass plant response rating (0 to 100 scale) [15, 30]: 0 | Kochia plant response rating (0-100) (kochia (Bassia scoparia) [16]; [29]): 0 | Kochia plant response rating (0 to 100 scale) (kochia (Bassia scoparia) [16]; [30]): 0 | Corn plant response rating (0-100) (corn (Zea mays) [17]; [29]): 0 | Corn plant response rating (0 to 100 scale) (corn (Zea mays) [17]; [30]): 0 | Oat, Wild plant response rating (0-100) [18, 29]: 0 | Oat, Wild plant response rating (0 to 100 scale) [18, 30]: 0 | Ragweed plant response rating (0-100) [19, 29]: 0 | Ragweed plant response rating (0 to 100 scale) [19, 30]: 0 | Ryegrass, Italian plant response rating (0-100) [20, 29]: 0 | Ryegrass, Italian plant response rating (0 to 100 scale) [20, 30]: 0 | Pigweed, Palmer plant response rating (0-100) [21, 29]: 0 | Pigweed, Palmer plant response rating (0 to 100 scale) [21, 30]: 0 | Wheat plant response rating (0-100) [22, 29]: 0 | Wheat plant response rating (0 to 100 scale) [22, 30]: 0 | Horseweed plant response rating (0-100) [23, 29]: 0 | Horseweed plant response rating (0 to 100 scale) [23, 30]: 0 | Soybean plant response rating (0-100) (soybean (Glycine max) [24]; [29]): 0 | Soybean plant response rating (0 to 100 scale) (soybean (Glycine max) [24]; [30]): 0 | Blackgrass plant response rating (0-100) [25, 29]: 0 | Blackgrass plant response rating (0 to 100 scale) [25, 30]: 0 | Foxtail, Green plant response rating (0-100) [26, 29]: 0 | Foxtail, Green plant response rating (0 to 100 scale) [26, 30]: 0 | Galium plant response rating (0-100) [27]: 0

— US20260285850A1, “SUBSTITUTED OXAZOLIDINONES AND IMIDAZOLINONES AS HERBICIDES” (FMC CORPORATION, priority 2023, published 2026)
